This is an account of results in US8563547B2, “(6,7-dihydro-2-nitro-5H-imidazol[2,1-b][1,3]oxazin-6-yl) amide compounds, preparation methods and uses thereof” (Shanghai Sun-Sail Pharmaceutical Science & Technology Co., …, priority 2010, dated 2013).

Values after ≈ are worked out from the molar mass of the structure shown. Read-outs that look alike come from different tables or passages of the source.

For orientation: solubility means the dissolved amount per volume that the medium holds. The term AUC(0-inf) denotes the area under the concentration-time curve extrapolated to infinity. A low value points to less exposure. One may read the AUC(0-t) as exposure summed from dosing to a finite time, without extrapolation to infinity. Low values mean less exposure, high ones more exposure. For orientation: Cmax means the peak of the concentration-time curve. As usually defined, the half-life is the time needed for the level to fall by half in the phase considered. Broadly, the Tmax is the time from dosing to the highest level.

The nature of one data set: physchem. The class given is physicochemical. The note with it: for solubility at 3 days: pH 1.2, simulated gastric fluid, thermodynamic from solid. As for the experimental part:
3-5 mg tested compound was added to 0.5 mL pH=1.2 HCL aqueous solution, shook for 3 days in a shaker, samples were centrifuged at 10000 r/min for 5 min, aspirated […] supernatant to 50 mL volumetric flask, added water and metered volume to the mark to make sample solution; precisely weighted 2.6 mg sample to 50 mL volumetric flask, added an appropriate amount of methanol to dissolve. Added water and metered volume to the mark, shook up to give control sample solution. Loaded 20 μL sample solution and control sample solution respectively, tested for liquid phase. Calculated as follows: Solubility (mg/mL)=C(control)*25*A(sample)/A(control)
C(control): the concentration of control sample
A(sample): peak area of liquid phase of sample solution
A(control): peak area of liquid phase of control sample solution

Data set [1] deals with Mycobacterium tuberculosis strain H37Rv. Kind of data set: Activity test for Mycobacterium tuberculosis (MIC, liquid medium, 96-well microplate). To be noted: for MIC: Mycobacterium tuberculosis, liquid medium, 37° C., read-out: Minimal inhibitory concentration for H37Rv; for activity for H37Rv, times as that of PA-824: relative to PA-824; for MIC for H37Rv, times as that of ethambutol: relative to ethambutol. Format: cell-based. The method, then:
Tested Mycobacterium tuberculosis strain H37Rv was transferred to liquid medium, cultured for 2 weeks at 37° C., drew a little culture liquid of bacterium and placed into 4 mL liquid medium, added 10˜20 sterile glass bead of 2˜3 diameter, shook for 20˜30S, absolute-rest precipitated for 10˜20 min, aspirated bacterium suspension supernatant, turbidity was adjusted to 1 Maxwell unit with liquid medium, equivalent to 1×10^7CFU/mL for use. Each drug was dissolved to 1 mg/mL by adding an appropriate amount of DMSO, filtered through 0.22 μm filter. Again diluted to the required experimental concentration with liquid medium. The final concentration of test drugs were set as follows: 0.001 μg/mL, 0.002 μg/mL, 0.004 μg/mL, 0.008 μg/mL, 0.015 μg/mL, 0.03 μg/mL, 0.06 μg/mL, 0.12 μg/mL, 0.25 μg/mL, 0.5 μg/mL, 1 μg/mL, 2 μg/mL, 4 μg/mL, 8 μg/mL and 16 μg/mL, there totally are 15 concentration gradients. 100 μL of each above-mentioned drug solution was added to 96-well microplate, further added 100 μL […] bacteria liquid so that drug concentration could reach the set final concentration, cultured at 37° C. The same drug dilution was done in triplate in parallel, control group didn't added drug, inoculation amount was set to 100%, 10% and 1% respectively. Minimal inhibitory concentration (MIC) for Mycobacterium tuberculosis by each drug was observed, and compared with MIC results of first-line antituberculosis drug ethambutol and PA-824 in clinical research phase at the same time.

The nature of data set [2]: Tissue distribution test in mice. Format: in vivo. The note with it: orally administrated 25 mg/kg. The method, then:
(§1) 16 healthy male ICR mice with 18-22 g of body weight were used. Drugs were employed by intravenous or gavage administration, administration doses were 5 mg and 25 mg/kg, administration volume was 10 mL/kg. Fasted for 12 h before test with free access to water. Uniformly fed at 2 h after administration. 0.3 mL blood was drawn through mice post-glomus venous plexus according to set time points, placed in heparinized test tube, centrifuged at 3000 r/min for 10 min, separated plasma, frozen in refrigerator at −20° C. When detected, samples were treated according to plasma sample treatment method, drug concentration in plasma was determined by LC-MS method, and calculated its pharmacokinetic parameters.
After compound 1 was orally administrated to mice (25 mg/kg), the concentrations of the compound in […], lung, brain and plasma at different time was shown as FIG. 1.

Data set [3] can be described thus: Drug metabolism test: pharmacokinetics in mice. Format: in vivo, ICR mice. The note with it: for MRT last: read-out: MRT0-t. The method, then:
as §1

[4] abbreviates: male, ICR, mouse, IV (5 mg/kg), plasma.
Setting [5] is: male, ICR, mouse, PO (25 mg/kg), plasma.

In the case of `O=C(CN1CCC(Oc2ccc(OC(F)(F)F)cc2)CC1)N[C@@H]1COc2nc([N+](=O)[O-])cn2C1` [Compound 1, (S)-N-(6,7-dihydro-2-nitro-5H-imidazo [2,1-b][1,3]oxazin-6-yl)-2-(4-(4-(trifluoromethoxy)phenoxy)piperid-1-yl)acetamide], in “physchem”, the “water-solubility, times as that of PA-824” value (“water-solubility, times” for short) is 79 times and the solubility at 3 days was 746 µg/mL (≈ 1540 µM). In addition, in data set [1], the MIC came out at 0.03 µg/mL (≈ 0.0618 µM); the “activity for H37Rv, times as that of PA-824” value (“activity for H37Rv, times” for short) was 4 times; the “MIC for H37Rv, times as that of ethambutol” value (“MIC for H37Rv, times as that” for short) is given as 16 times. In addition, in data set [2], the “site of major distribution” value was “lung and spleen”. For the same molecule, the tissue distribution property entry in data set [2] (FIG. 1) is given as “good tissue distribution property”. This molecule had a CLz in data set [3] (IV (5 mg/kg)) of 10.7 mL/min/kg. In data set [3] (setting [4]), this molecule had an AUC(0-inf) of 7860 ng·h/mL, an AUC(0-t) of 7850 ng·h/mL, a Cmax of 3880 ng/mL and a half-life of 2.8 h. For the same molecule, the MRT last in data set [3] (setting [4]) is 3.6 h. Further, in data set [3] (setting [5]), the AUC(0-inf) is 40200 ng·h/mL, the AUC(0-t) was found to be 40100 ng·h/mL, the peak level (Cmax) was 4790 ng/mL and the Tmax was determined as 1 h. In data set [3] (setting [5]), the half-life is 2.7 h and the MRT last is 5 h. For the same molecule, in data set [3] (male, ICR, mouse, plasma, IV (5 mg/kg), read-out: Vz), the Vd is 2.3 L/kg. In addition, in data set [3] (male, ICR, mouse, plasma, PO 25 mg/kg vs IV 5 mg/kg, read-out: F (oral bioavailability)), the bioavailability turned out to be 102%.

As to `O=C(CN1CCC(Oc2ccc(OC(F)(F)F)c(F)c2)CC1)N[C@@H]1COc2nc([N+](=O)[O-])cn2C1` [Compound 3, 2-(4-(3-fluoro-4-(trifluoromethoxy)phenoxy)piperid-1-yl)-N-((S)-6,7-dihydro-2-nitro-5H-imidazo[2,1-b][1,3]oxazin-6-yl)acetamide], in data set [1], the MIC is 0.06 µg/mL (≈ 0.119 µM); the “activity for H37Rv, times” value was found to be 2 times; the “MIC for H37Rv, times as that” value is 8 times.

On to `CC(C)Oc1ccc(OC2CCN(CC(=O)N[C@@H]3COc4nc([N+](=O)[O-])cn4C3)CC2)cc1` [Compound 14], for which, in data set [1], the MIC turned out to be 0.06 µg/mL (≈ 0.131 µM); the “activity for H37Rv, times” value came out at 2 times; the “MIC for H37Rv, times as that” value was 8 times.

Take `O=C(CN1CCC(Oc2ccc(OCCOC3CC3)cc2)CC1)N[C@@H]1COc2nc([N+](=O)[O-])cn2C1` [Compound 16, (S)-2-(4-(4-(2-(cyclopropoxy)ethoxy)phenoxy)piperid-1-yl)-N-(2-nitro-6,7-dihydro-5H-imidazo [2,1-b][1,3]oxazin-6-yl)acetamide]: in data set [1], the MIC is 0.03 µg/mL (≈ 0.0598 µM); the “activity for H37Rv, times” value came out at 4 times; the “MIC for H37Rv, times as that” value is given as 16 times.

On to `O=C(CN1CCN(Cc2ccc(OC(F)(F)F)cc2)CC1)N[C@@H]1COc2nc([N+](=O)[O-])cn2C1` [Compound 17, (S)-N-(6,7-dihydro-2-nitro-5H-imidazo [2,1-b][1,3]oxazin-6-yl)-2-(4-(4-(trifluoromethoxy)benzyl)piperazin-1-yl)acetamide], for which, in the data set “physchem”, the “water-solubility, times” value came out at 155 times and the solubility at 3 days was 1460 µg/mL (≈ 3010 µM). Moreover, the MIC in data set [1] was determined as 0.12 µg/mL (≈ 0.248 µM).

With `O=C(CCN1CCC(Oc2ccc(OC(F)(F)F)cc2)CC1)N[C@@H]1COc2nc([N+](=O)[O-])cn2C1` [Compound 22, (S)-N-(6,7-dihydro-2-nitro-5H-imidazo [2,1-b][1,3]oxazin-6-yl)-3-(4-(4-(trifluoromethoxy)phenoxy)piperid-1-yl)propanamide], in the data set “physchem”, the “water-solubility, times” value came out at 72 times and the solubility at 3 days is 677 µg/mL (≈ 1360 µM). In addition, in data set [1], the MIC was 0.06 µg/mL (≈ 0.12 µM); the “activity for H37Rv, times” value is given as 2 times; the “MIC for H37Rv, times as that” value turned out to be 8 times.

For the molecule `O=C(CCCN1CC(Oc2ccc(OC(F)(F)F)cc2)C1)N[C@@H]1COc2nc([N+](=O)[O-])cn2C1` [Compound 26, 4-(3-(4-(trifluoromethoxy)phenoxy)azetidin-1-yl)-N-((S)-6,7-dihydro-2-nitro-5H-imidazo [2,1-b][1,3]oxazin-6-yl)butyramide], in the data set “physchem”, the “water-solubility, times” value came out at 90 times and the concentration in solution (solubility at 3 days) came to 846 µg/mL (≈ 1740 µM). In data set [1], the MIC is 0.03 µg/mL (≈ 0.0618 µM); the “activity for H37Rv, times” value amounted to 4 times; the “MIC for H37Rv, times as that” value worked out at 16 times.

`O=[N+]([O-])c1cn2c(n1)OC[C@@H](OCc1ccc(OC(F)(F)F)cc1)C2` [PA-824, reference compound]: the solubility at 3 days in the data set “physchem” is 9.4 µg/mL (≈ 26.2 µM). The MIC in data set [1] is 0.12 µg/mL (≈ 0.334 µM).

With `CC[C@@H](CO)NCCN[C@@H](CC)CO` [ethambutol, reference compound], in data set [1], the MIC was determined as 0.5 µg/mL (≈ 2.45 µM).
